# Test results: US20180194822A1, “DISRUPTION OF THE INTERACTION BETWEEN AMYLOID BETA PEPTIDE AND DIETARY LIPIDS” (THE TRUSTEES OF COLUMBIA UNIVERSITY IN THE CITY OF NEW YORK, priority 2015, published 2018)
# “Also recorded” adds a separate entry of the source.
# Columns and labels:
# APPsw+ mice [1] = assay: Nesting behavior after intranasal SDPC; type: in vivo, mouse; conditions: 10 days intranasal low dose 0.5 mg/kg every other day, vs saline treated APPsw+
# Method: FIGS. 4A-4D. 10 days treatment with low dose SDPC. (A) After 10 days treatment (Tx) with low dose phosphatidylcholine (PC) containing docosahexaenoyl (22:6) and stearoyl (18:0) acyl chains, 18:0-22:6 PC; 1-stearoyl-2-docosahexaenoyl-sn-glycero-3-phosphocholine (CAS Number 59403-52-0; Synonyms: 1-octadecanoyl-2-(4Z,7Z,10Z,13Z,16Z,19Z-docosahexaenoyl)-sn-glycero-3-phosphocholine and PC(18:0/22:6(4Z,7Z,10Z,13Z,16Z,19Z))) (SDPC) intranasally, nesting score was assessed as described before (114). The number of nestlettes (from 3 initially placed in cage) was estimated and exact weight of remaining nestlettes was determined in grams (g) from initial 3 nestlettes (approximately 2 g). (B) Activity during novel object recognition (NOR) training was assessed after 10 days intranasal SDPC. […] (D) Activity during Open Field testing 24 hours after NOR training (note, no difference in novel object discrimination (NOD) index was found. Standard error is shown for means of Saline treated APPsw+(control) (n=4); SDPC treated APPsw+(n=5) and wild type receiving no treatment (n=4). Significance was determined for […] using Student's t-test.
# FIGS. 5A-5B. […] (A) After 30 days treatment (Tx) with low dose SDPC intranasally, nesting score was assessed as described (114). […] (B) Activity during NOR training was assessed after 10 days intranasal SDPC. […] Significance was determined for […] using Student's t-test. […]
# APPsw+ mice [2] = assay: Novel object recognition (NOR) and activity during NOR training after intranasal SDPC; type: in vivo, mouse
# Method: (§1) FIGS. 4A-4D. 10 days treatment with low dose SDPC. (A) After 10 days treatment (Tx) with low dose phosphatidylcholine (PC) containing docosahexaenoyl (22:6) and stearoyl (18:0) acyl chains, 18:0-22:6 PC; 1-stearoyl-2-docosahexaenoyl-sn-glycero-3-phosphocholine (CAS Number 59403-52-0; Synonyms: 1-octadecanoyl-2-(4Z,7Z,10Z,13Z,16Z,19Z-docosahexaenoyl)-sn-glycero-3-phosphocholine and PC(18:0/22:6(4Z,7Z,10Z,13Z,16Z,19Z))) (SDPC) intranasally, nesting score was assessed as described before (114). The number of nestlettes (from 3 initially placed in cage) was estimated and exact weight of remaining nestlettes was determined in grams (g) from initial 3 nestlettes (approximately 2 g). (B) Activity during novel object recognition (NOR) training was assessed after 10 days intranasal SDPC. Grooming behavior, free rearing, wall rearing and center crossing events are shown and were summed in total events. (C) Time spent with each identical object during NOR training. (D) Activity during Open Field testing 24 hours after NOR training (note, no difference in novel object discrimination (NOD) index was found. Standard error is shown for means of Saline treated APPsw+(control) (n=4); SDPC treated APPsw+(n=5) and wild type receiving no treatment (n=4). Significance was determined for p>0.05 using Student's t-test.
# FIGS. 5A-5B. Nesting and activity after 30 days treatment with escalating dose SDPC. (A) After 30 days treatment (Tx) with low dose SDPC intranasally, nesting score was assessed as described (114). The number of nestlettes remaining (from 3 initially placed in cage) was estimated and exact weight of remaining nestlettes was determined in grams (g remaining) from initial 3 nestlettes (approximately 2 g). (B) Activity during NOR training was assessed after 10 days intranasal SDPC. Grooming behavior, free rearing, wall rearing and center crossing events were summed in total events. Standard error is shown for means of Saline treated APPsw+(control) (n=4); SDPC treated APPsw+(n=5) and wild type receiving no treatment (n=4). Significance was determined for […] using Student's t-test.
# FIGS. 6A-6B. 30 days treatment with escalating dose SDPC. (A) Mice were placed in a box with two identical objects for 10 minutes on the training day 1. […] One object was replaced with a novel object for testing (NOD index). The same data is shown to scale in FIG. 6B (Testing (immediate)). Twenty-four hours later (Testing (24 hours)), mice were placed in the same context with one of the original identical objects (Familiar) and a second novel object (Novel). The time spent with each object was recorded. (B) For testing, novel object discrimination (NOD index) is assessed using the equation [(time novel)/(time familiar+time novel)].
# NOD index of 0.5 represents equal time with each object. NOD>0.5 represents more time spent with novel object. Standard error is shown for means of Saline treated APPsw+(control) (n=4); SDPC treated APPsw+(n=5) and wild type receiving no treatment (n=4). Significance was determined for p>0.05 using Student's t-test.
# SDPC was obtained from Avanti Polar Lipids (850472C) in chloroform, dried under vacuum conditions and resuspended in 0.9% saline (0.9% sodium chloride injection, USP, NDC 0409-7983-61, Hospira) containing 0.2% (weight:volume) methyl cellulose (average Mn 40,000, viscosity: 400 cP, CAS 9004-67-5, Sigma-Aldrich 274429) to aid in solubilization. A control solution of 0.9% saline containing 0.2% methyl cellulose was prepared at the same time without SDPC. A concentration of 3 mg/ml was used for doses 1-15 and 12 mg/ml was used for doses 16-18 (FIG. 3). Brief (3-5 minutes) bath sonication was used to improve solubility of 12 mg/ml concentration.
# Mice were treated for 10 days at a low dose of SDPC intranasally administered 2.5 uL each nostril (5 μL total dose) for 0.5 mg/kg every other day assuming average mouse weight of 30 g (0.03 kg) (FIG. 3). […]
# APPsw+ mice [3] = assay: Open Field testing after intranasal SDPC; type: in vivo, mouse; conditions: 10 days intranasal low dose; does not reach significance
# Method: as §1, with “t-test. […]” for “t-test.”
# APPsw+ mice [4] = assay: Novel object recognition (NOR) and activity during NOR training after intranasal SDPC; type: in vivo, mouse; conditions: 30 days intranasal escalated dose (0.5 then 2 mg/kg), SDPC vs saline treated APPsw+
# [5] = biological target: T1, Aβ42 peptide fluorescently tagged with FAM (Homo sapiens, UniProt P05067); assay: Lipid binding assay: Aβ42-FAM on lipid-coated maleic anhydride plates
# T1 construct: SensoLyte Fluorescent β-Amyloid1-42 Sampler Kit, Anaspec; purchased Anaspec SensoLyte Fluorescent β-Amyloid1-42 Sampler Kit (catalogue number not given)
# Source text: Maleic Anhydride Activated plates (Pierce Amine-binding, 96-well plates, Thermo Scientific) were washed in wash buffer (PBS: Phosphate buffered saline, 0.15 M sodium chloride, pH 7.2 containing 0.05% Tween-20 Detergent, PBST, Thermo Scientific) 4 times to activate reactive maleic anhydride functional group. Amine containing lipids were PE containing docosahexaenoyl (22:6) and stearoyl (18:0) acyl chains (22:6/18:0 PE) or two stearoyl acyl chains (di18:0 PE) were from Avanti Polar Lipids. 22:6/18:0 PE was obtained in chloroform, dried down and solubilized at 200 pmol/μL in 1% n-octylglucoside (NOG, Santa Cruz) in PBS and sonicated for 5 minutes. di18:0 PE was obtained as a powder, solubilized at 200 pmol/μl in 1% NOG and bath sonicated for 5 minutes. […] Plates were then washed 4 times in PBST and fluorescence was detected using Tecan Infinite 200 at wavelengths 494/521 (excitation, emission) using the Optimal Gain setting. […]
# (§2) Lipid containing long chain polyunsaturated fatty acid 22:6, docosahexaenoic acid (DHA) and an amine containing headgroup, phosphatidylethanoloamine (PE) was bound to maleic anhydride activated plates which bind to free primary amine functional groups at neutral and alkaline pH. […] Specific binding was calculated by subtracting background binding of di18:0 PE.
# [6] = biological target: Aβ:ApoE:lipid binding complex (Homo sapiens, UniProt P05067); assay: ApoE binding assay: fluorescent Aβ42 on ApoE-coated plates in presence of lipid; parameters: SensoLyte Fluorescent β-Amyloid1-42 Sampler Kit, Anaspec; HiLyte Fluor (fluorescent label); purchased ApoE: rPeptide; labelled Aβ: Anaspec; conditions: only at very high concentrations of Aβ
# Method: Plates were prepared as above and incubated with a constant amount of apolipoprotein E (ApoE, rPeptide) at 12.5 pmol/well FIG. 2A or 4 pmol/well FIG. 2B for 1 hour at room temperature with shaking. Plates were then blocked for 1 hour and washed with PB ST. Aβ labled with HiLyte (Anaspec) was prepared as above and mixed with increasing amount of lipid in constant concentration of NOG (0.0034%) in SuperBlock Blocking buffer and incubated overnight at 4° C. Binding was read as above at 503/528 excitation/emission).
# Assays were done in triplicate wells and reported as mean+/−standard error. Binding kinetics and best fit curve fitting were accomplished using Prism Graphpad software.
# Specific binding was determined by subtracting non-specific binding to the plate in absence of ApoE (no ApoE, 0).
# [7] = biological target: T2, Aβ42-FAM bound to lipids containing 22:6 (Homo sapiens, UniProt P05067); assay: Competition of Aβ42-FAM binding to plate-bound 22:6 lipid; conditions: competitor 5×, 1 μM
# T2 construct: SensoLyte Fluorescent β-Amyloid1-42 Sampler Kit, Anaspec; purchased Anaspec SensoLyte Fluorescent β-Amyloid1-42 Sampler Kit (catalogue number not given)
# Source text: Maleic Anhydride Activated plates (Pierce Amine-binding, 96-well plates, Thermo Scientific) were washed in wash buffer (PBS: Phosphate buffered saline, 0.15 M sodium chloride, pH 7.2 containing 0.05% Tween-20 Detergent, PBST, Thermo Scientific) 4 times to activate reactive maleic anhydride functional group. Amine containing lipids were PE containing docosahexaenoyl (22:6) and stearoyl (18:0) acyl chains (22:6/18:0 PE) or two stearoyl acyl chains (di18:0 PE) were from Avanti Polar Lipids. […] Plates were then washed 4 times in PBST and fluorescence was detected using Tecan Infinite 200 at wavelengths 494/521 (excitation, emission) using the Optimal Gain setting.
# Scrambled Aβ or unlabeled Aβ42 peptides (Anaspec) were diluted to 100 μM as above and then diluted in SuperBlock Blocking buffer to 1 μM, incubated for 1 hour at room temperature. Plates were washed and FAM fluorescence was read as above.
# as §2
# [8] = 30 days intranasal escalated dose
compound,measurement,setting,value
"CC/C=C\C/C=C\C/C=C\C/C=C\C/C=C\C/C=C\CCC(=O)O[C@H](COC(=O)CCCCCCCCCCCCCCCCC)COP(=O)([O-])OCC[N+](C)(C)C [SDPC, 1-stearoyl-2-docosahexaenoyl-sn-glycero-3-phosphocholine]",nesting behavior,APPsw+ mice [1],trend toward improvement; also recorded: non-significant trend for improvement
same,"NOR discrimination (NOD index), tested 24 hours after training",APPsw+ mice [2]; 10 days intranasal low dose,no discrimination was found; also recorded: no difference
same,"activity during NOR training (wall rearing, free rearing, total activity level)","APPsw+ mice [2]; 10 days intranasal low dose 0.5 mg/kg every other day, vs saline treated APPsw+, 0.5 mg/kg",trend toward improvement; also recorded: non-significant trend for improvement
same,exploration: time spent with identical objects during NOR training,"APPsw+ mice [2]; 10 days intranasal low dose 0.5 mg/kg every other day, 0.5 mg/kg",trend toward improved exploratory behavior; also recorded: non-significant trend toward exploration activity
same,NOR deficits: time spent with a novel object,APPsw+ mice [2]; [8],significant amelioration
same,novel object discrimination index (NOD index),APPsw+ mice [2]; [8],significant changes were not observed; also recorded: trend for amelioration
same,"discrimination of one displaced identical object (hippocampal function), training day 2",APPsw+ mice [2]; 30 days intranasal escalating dose,no discrimination was determined
same,activity in the open field test following NOR testing,APPsw+ mice [3],continued improvement of activity level; also recorded: restored to the level of wild type non-treated mice
same,number of wall rears and total activity events,APPsw+ mice [4],significant improvement
CCCCCCCCCCCCCCCCCC(=O)OC[C@H](COP(=O)(O)OCCN)OC(=O)CCCCCCCCCCCCCCCCC [di18:0 PE],binding of Aβ42-FAM to plate-bound lipid,"[5]; for di18:0: concentrations 10,000 pmol/well and below",very low binding activity
same,binding of Aβ42-FAM to plate-bound lipid at the highest concentrations,"[5]; highest lipid concentrations (above 10,000 pmol/well)",modest binding
same,Aβ42-FAM binding to apoE in presence of lipid,[6],only very minimally
unlabeled Aβ42 peptide: unlabeled Aβ42 peptide (Anaspec) used as competitor,disruption of Aβ42-FAM binding to 22:6 lipid by competitor peptide,[7],competitively disrupted
